{
  "source": "patent US20220213060A1",
  "about": "“Crystal Form of Quinazolinone Compound and Preparation Method Therefor” (Luoxin Healthcare Science and Technology Development …, priority 2019, published 2022)",
  "key": {"[1]": {"assay": "Solid stability test of crystal form A (influencing factors and accelerated conditions, HPLC/XRPD)", "format": "physicochemical", "description": "1.5 High Performance Liquid Chromatograph Method\nSample concentration: 0.5 mg/mL\nThe stability of the crystal form A of the compound represented by formula (I) was investigated according to the Guideline for Stability Testing of APIs and Formulations (Chinese Pharmacopoeia 2015 Edition IV General Rule 9001).\n5 mg of the crystal form A of the compound represented by formula (I) was weighed separately, placed in a dry and clean glass bottle, in duplicate, spread into a thin layer, as a formal test sample, the two samples were placed under the test conditions of influencing factors (60° C., 92.5% relative humidity) and accelerated conditions (30° C./65% relative humidity, 40° C./75% relative humidity and 60° C./75% relative humidity), the samples were fully exposed, covered with aluminum foil and pierced with small holes. Sampling and analysis were performed on day 5, day 10, and 1 month. Samples placed under illumination (total illumination 1200000 Lux·hr, near ultraviolet 200 w·hr/m^2) were completely exposed at room temperature."}, "[2]": {"test_system": "human ovarian cancer SKOV-3 (PIK3CA H1047R mutation)", "assay": "In vivo pharmacodynamic study, SKOV-3 nude mouse subcutaneous xenograft tumor model", "parameters": "species or system BALB/c nude mice", "conditions": "for T/C % / TGI %: oral once a day for 28 days", "description": "Human SKOV-3 ovarian cancer cells with PIK3CA H1047R mutation. This experiment evaluated the efficacy of the crystal form A of the represented by formula (I) in a human ovarian cancer xenograft tumor model.\nCell culture: Human ovarian cancer SKOV-3 cells were cultured in vitro in a single layer, the culture condition was RPMI-1640 medium with 10% fetal bovine serum, and the cells were incubated in 5% CO2 at 37° C. Digestion and passage treatment with trypsin-EDTA was carried out twice a week. When the cell saturation was 80%-90% and the number reached the requirement, the cells were collected, counted and inoculated.\nAnimals: BALB/c nude mice, female, 6-8 weeks old, weighing 18-20 g. A total of 67 animals were required, and provided by Beijing Vital River Biotechnology Co., Ltd.\nTumor inoculation: 0.2 mL (10×10^6 cells) of SKOV-3 cells (with matrigel in a volume ratio of 1:1) were subcutaneously inoculated on the right back of each mouse, group administration was started when the average tumor volume reached 150 mm^3-200 mm^3.\n(§1) Tumor-bearing mice in each administration group had good tolerance to the tested compounds."}, "[3]": {"test_system": "HR+/HER2+ human breast cancer BT-474 (PIK3CA amplified)", "assay": "In vivo pharmacodynamic study, BT-474 nude mouse subcutaneous xenograft tumor model", "parameters": "species or system BALB/c nude mice", "description": "The phenotype of human BT-474 breast cancer cells is HR+/HER2+, and it has PIK3CA amplification. This experiment evaluated the efficacy of the crystal form A of the compound represented by formula (I) in a human breast cancer xenograft tumor model, using BYL-719 as a reference.\nCell culture: Human breast cancer BT474 cells were cultured in vitro in a single layer, the culture condition was Hybri-Care medium with 10% fetal bovine serum and the cells were incubated in 5% CO2 at 37° C. Digestion and passage treatment with trypsin-EDTA was carried out twice a week. When the cell saturation was 80%-90% and the number reached the requirement, the cells were collected, counted and inoculated.\nAnimals: BALB/c nude mice, female, 6-8 weeks old, weighing 18-20 g. A total of 85 animals were required, and provided by Shanghai Bikai experimental animal Co., Ltd.\nTumor inoculation: Estrogen tablets (0.36 mg/tablet) were subcutaneously inoculated on the left back of each mouse, three days later, 0.2 mL (10×10^6 cells) of BT474 cells (with matrigel in a volume ratio of 1:1) were subcutaneously inoculated on the right back of each mouse, group administration was started when the average tumor volume reached 150 mm^3−200 mm^3.\nas §1"}, "[4]": {"conditions": "30° C., relative humidity 65%, open, 1 month"}, "[5]": {"conditions": "30° C., relative humidity 65%, open, Day 10"}, "[6]": {"conditions": "40° C., relative humidity 75%, open, 1 month"}, "[7]": {"conditions": "40° C., relative humidity 75%, open, Day 10"}, "[8]": {"conditions": "60° C., relative humidity 75%, open, 1 month"}, "[9]": {"conditions": "60° C., relative humidity 75%, open, Day 10"}, "[10]": {"conditions": "High humidity (25° C./92.5% relative humidity, open), Day 5"}, "[11]": {"conditions": "High humidity (25° C./92.5% relative humidity, open), Day 10"}, "[12]": {"conditions": "High temperature (60° C., open), Day 5"}, "[13]": {"conditions": "High temperature (60° C., open), Day 10"}, "[14]": {"conditions": "Illumination (total illumination 1.2 × 106 Lux · hr/near ultraviolet 200 w · hr/m^2, open), Day 10"}, "[15]": {"conditions": "In the absence of light, Day 10"}, "[16]": {"conditions": "10 mg/kg, listed as crystal form A of the compound represented by formula (I)"}, "[17]": {"conditions": "20 mg/kg, listed as crystal form A of the compound represented by formula (I)"}, "[18]": {"conditions": "40 mg/kg, listed as crystal form A of the compound represented by formula (I)"}, "[19]": {"conditions": "10 mg/kg, oral once a day for 20 days"}, "[20]": {"conditions": "10 mg/kg, oral once a day for 20 days, listed as crystal form A of the compound represented by formula (I)"}, "[21]": {"conditions": "20 mg/kg, oral once a day for 20 days"}, "[22]": {"conditions": "20 mg/kg, oral once a day for 20 days, listed as crystal form A of the compound represented by formula (I)"}, "[23]": {"conditions": "40 mg/kg, oral once a day for 20 days"}, "[24]": {"conditions": "40 mg/kg, oral once a day for 20 days, listed as crystal form A of the compound represented by formula (I)"}},
  "data": [
    {"smiles": "CNC(=O)[C@H](C)Cn1cnc2ccc(-c3cnc(OC)c(NS(=O)(=O)c4ccc(F)cc4F)c3)cc2c1=O", "values": [
      {"measurement": "Content of the crystal form A of the compound represented by formula (I) (%)", "setting": "[1]; [4]", "result": 101.64, "unit": "%"},
      {"measurement": "Total impurity content (%)", "setting": "[1]; [4]", "result": 0.14, "unit": "%"},
      {"measurement": "Content of the crystal form A of the compound represented by formula (I) (%)", "setting": "[1]; [5]", "result": 104.28, "unit": "%"},
      {"measurement": "Total impurity content (%)", "setting": "[1]; [5]", "result": 0.14, "unit": "%"},
      {"measurement": "Content of the crystal form A of the compound represented by formula (I) (%)", "setting": "[1]; [6]", "result": 103.86, "unit": "%"},
      {"measurement": "Total impurity content (%)", "setting": "[1]; [6]", "result": 0.16, "unit": "%"},
      {"measurement": "Content of the crystal form A of the compound represented by formula (I) (%)", "setting": "[1]; [7]", "result": 103.79, "unit": "%"},
      {"measurement": "Total impurity content (%)", "setting": "[1]; [7]", "result": 0.15, "unit": "%"},
      {"measurement": "Content of the crystal form A of the compound represented by formula (I) (%)", "setting": "[1]; [8]", "result": 103.30, "unit": "%"},
      {"measurement": "Total impurity content (%)", "setting": "[1]; [8]", "result": 0.14, "unit": "%"},
      {"measurement": "Content of the crystal form A of the compound represented by formula (I) (%)", "setting": "[1]; [9]", "result": 103.63, "unit": "%"},
      {"measurement": "Total impurity content (%)", "setting": "[1]; [9]", "result": 0.14, "unit": "%"},
      {"measurement": "Content of the crystal form A of the compound represented by formula (I) (%)", "setting": "[1]; Day 0", "result": 103.08, "unit": "%"},
      {"measurement": "Total impurity content (%)", "setting": "[1]; Day 0", "result": 0.14, "unit": "%"},
      {"measurement": "Content of the crystal form A of the compound represented by formula (I) (%)", "setting": "[1]; [10]", "result": 103.08, "unit": "%"},
      {"measurement": "Total impurity content (%)", "setting": "[1]; [10]", "result": 0.14, "unit": "%"},
      {"measurement": "Content of the crystal form A of the compound represented by formula (I) (%)", "setting": "[1]; [11]", "result": 103.95, "unit": "%"},
      {"measurement": "Total impurity content (%)", "setting": "[1]; [11]", "result": 0.14, "unit": "%"},
      {"measurement": "Content of the crystal form A of the compound represented by formula (I) (%)", "setting": "[1]; [12]", "result": 104.39, "unit": "%"},
      {"measurement": "Total impurity content (%)", "setting": "[1]; [12]", "result": 0.14, "unit": "%"},
      {"measurement": "Content of the crystal form A of the compound represented by formula (I) (%)", "setting": "[1]; [13]", "result": 102.00, "unit": "%"},
      {"measurement": "Total impurity content (%)", "setting": "[1]; [13]", "result": 0.14, "unit": "%"},
      {"measurement": "Content of the crystal form A of the compound represented by formula (I) (%)", "setting": "[1]; [14]", "result": 103.04, "unit": "%"},
      {"measurement": "Total impurity content (%)", "setting": "[1]; [14]", "result": 0.14, "unit": "%"},
      {"measurement": "Content of the crystal form A of the compound represented by formula (I) (%)", "setting": "[1]; [15]", "result": 102.57, "unit": "%"},
      {"measurement": "Total impurity content (%)", "setting": "[1]; [15]", "result": 0.15, "unit": "%"},
      {"measurement": "Stability (conclusion of the solid stability test)", "setting": "[1]; all test conditions of Table 7", "result": "good stability"},
      {"measurement": "Anti-tumor effect (in words)", "setting": "[2]; 10 mg/kg", "result": "a certain anti-tumor effect"},
      {"measurement": "T/C %", "setting": "[2]; 10 mg/kg", "result": 69.17, "unit": "%"},
      {"measurement": "TGI %", "setting": "[2]; 10 mg/kg", "result": 30.45, "unit": "%"},
      {"measurement": "T/C %", "setting": "[2]; [16]", "result": 69.17, "unit": "%"},
      {"measurement": "TGI %", "setting": "[2]; [16]", "result": 30.45, "unit": "%"},
      {"measurement": "Anti-tumor effect (in words)", "setting": "[2]; 20 mg/kg", "result": "a certain anti-tumor effect"},
      {"measurement": "T/C %", "setting": "[2]; 20 mg/kg", "result": 60.61, "unit": "%"},
      {"measurement": "TGI %", "setting": "[2]; 20 mg/kg", "result": 41.42, "unit": "%"},
      {"measurement": "T/C %", "setting": "[2]; [17]", "result": 60.61, "unit": "%"},
      {"measurement": "TGI %", "setting": "[2]; [17]", "result": 41.42, "unit": "%"},
      {"measurement": "Anti-tumor effect (in words)", "setting": "[2]; 40 mg/kg group", "result": "significant anti-tumor effects"},
      {"measurement": "T/C %", "setting": "[2]; 40 mg/kg", "result": 37.79, "unit": "%"},
      {"measurement": "TGI %", "setting": "[2]; 40 mg/kg", "result": 69.16, "unit": "%"},
      {"measurement": "T/C %", "setting": "[2]; [18]", "result": 37.79, "unit": "%"},
      {"measurement": "TGI %", "setting": "[2]; [18]", "result": 69.16, "unit": "%"},
      {"measurement": "Anti-tumor effect (in words)", "setting": "[3]; 10 mg/kg group", "result": "strong anti-tumor effect"},
      {"measurement": "T/C %", "setting": "[3]; [19]", "result": 50.18, "unit": "%"},
      {"measurement": "TGI %", "setting": "[3]; [19]", "result": 65.34, "unit": "%"},
      {"measurement": "T/C %", "setting": "[3]; [20]", "result": 50.18, "unit": "%"},
      {"measurement": "TGI %", "setting": "[3]; [20]", "result": 65.34, "unit": "%"},
      {"measurement": "Anti-tumor effect (in words)", "setting": "[3]; 20 mg/kg group", "result": "strong anti-tumor effect"},
      {"measurement": "T/C %", "setting": "[3]; [21]", "result": 37.92, "unit": "%"},
      {"measurement": "TGI %", "setting": "[3]; [21]", "result": 80.21, "unit": "%"},
      {"measurement": "T/C %", "setting": "[3]; [22]", "result": 37.92, "unit": "%"},
      {"measurement": "TGI %", "setting": "[3]; [22]", "result": 80.21, "unit": "%"},
      {"measurement": "Anti-tumor effect (in words)", "setting": "[3]; 40 mg/kg group", "result": "significant anti-tumor effects"},
      {"measurement": "T/C %", "setting": "[3]; [23]", "result": 21.16, "unit": "%"},
      {"measurement": "TGI %", "setting": "[3]; [23]", "result": 105.65, "unit": "%"},
      {"measurement": "T/C %", "setting": "[3]; [24]", "result": 21.16, "unit": "%"},
      {"measurement": "TGI %", "setting": "[3]; [24]", "result": 105.65, "unit": "%"},
      {"measurement": "Dose to play the effect", "setting": "[3]; oral once a day for 20 days", "result": 10, "unit": "mg/kg"}
    ]}
  ]
}
